Measured values from paper PMC6664820, “Novel natural and synthetic inhibitors of solute carriers SGLT1 and SGLT2” (Pharmacology Research & Perspectives, 2019).
Where a name gives a salt, the structure may show the parent alone. Read-outs that look alike come from different tables or passages of the source.

Columns and labels:
SGLT1 = target: T1, SGLT1 (Homo sapiens, UniProt P13866); assay: SGLT1 inhibition assay for validation of screening hits and similar compounds (1‐NBD‐glucose uptake, CHO‐hSGLT1 cells); type: cell-based; set-up: activity: dose or concentration left out as unconfirmed; details: for remaining activity at 5 µM / remaining activity at 50 µM: 0.5 h, concentration not given, read-out: NORMALIZED SGLT1 ACTIVITY (%); for remaining activity at 5 µM / remaining activity at 50 µM / activity: mean; for activity: compound, normalized 1-NBD-glucose uptake, CHO-hSGLT1 cells
T1 sequence (P13866 1-664): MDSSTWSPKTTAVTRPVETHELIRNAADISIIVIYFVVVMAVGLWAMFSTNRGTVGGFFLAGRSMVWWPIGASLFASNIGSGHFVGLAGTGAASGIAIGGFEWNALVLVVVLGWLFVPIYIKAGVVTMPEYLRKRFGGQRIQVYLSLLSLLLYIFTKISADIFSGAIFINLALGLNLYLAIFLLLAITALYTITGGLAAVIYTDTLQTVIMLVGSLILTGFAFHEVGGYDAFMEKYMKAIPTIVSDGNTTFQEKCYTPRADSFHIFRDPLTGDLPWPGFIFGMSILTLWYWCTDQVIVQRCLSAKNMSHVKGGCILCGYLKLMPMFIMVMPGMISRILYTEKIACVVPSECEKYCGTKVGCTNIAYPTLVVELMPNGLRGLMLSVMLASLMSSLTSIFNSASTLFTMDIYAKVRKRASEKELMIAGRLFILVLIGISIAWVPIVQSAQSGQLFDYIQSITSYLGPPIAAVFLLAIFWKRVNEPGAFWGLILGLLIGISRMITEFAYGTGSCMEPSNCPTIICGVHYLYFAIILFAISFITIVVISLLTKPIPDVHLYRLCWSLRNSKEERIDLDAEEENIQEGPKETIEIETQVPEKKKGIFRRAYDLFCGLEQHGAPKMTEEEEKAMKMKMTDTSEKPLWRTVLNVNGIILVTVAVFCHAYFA

hSGLT2 = target: T2, hSGLT2 (Homo sapiens, UniProt P31639); assay: SGLT2 inhibition assay for validation of screening hits and similar compounds (1‐NBD‐glucose uptake, CHO‐hSGLT2 cells); type: cell-based; set-up: activity: dose or concentration left out as unconfirmed; details: for remaining activity at 5 µM / remaining activity at 50 µM: 0.5 h, concentration not given, read-out: NORMALIZED SGLT2 ACTIVITY (%); for remaining activity at 5 µM / remaining activity at 50 µM / activity: mean; for activity: compound, normalized 1-NBD-glucose uptake, CHO-hSGLT2 cells
T2 sequence (P31639 1-672): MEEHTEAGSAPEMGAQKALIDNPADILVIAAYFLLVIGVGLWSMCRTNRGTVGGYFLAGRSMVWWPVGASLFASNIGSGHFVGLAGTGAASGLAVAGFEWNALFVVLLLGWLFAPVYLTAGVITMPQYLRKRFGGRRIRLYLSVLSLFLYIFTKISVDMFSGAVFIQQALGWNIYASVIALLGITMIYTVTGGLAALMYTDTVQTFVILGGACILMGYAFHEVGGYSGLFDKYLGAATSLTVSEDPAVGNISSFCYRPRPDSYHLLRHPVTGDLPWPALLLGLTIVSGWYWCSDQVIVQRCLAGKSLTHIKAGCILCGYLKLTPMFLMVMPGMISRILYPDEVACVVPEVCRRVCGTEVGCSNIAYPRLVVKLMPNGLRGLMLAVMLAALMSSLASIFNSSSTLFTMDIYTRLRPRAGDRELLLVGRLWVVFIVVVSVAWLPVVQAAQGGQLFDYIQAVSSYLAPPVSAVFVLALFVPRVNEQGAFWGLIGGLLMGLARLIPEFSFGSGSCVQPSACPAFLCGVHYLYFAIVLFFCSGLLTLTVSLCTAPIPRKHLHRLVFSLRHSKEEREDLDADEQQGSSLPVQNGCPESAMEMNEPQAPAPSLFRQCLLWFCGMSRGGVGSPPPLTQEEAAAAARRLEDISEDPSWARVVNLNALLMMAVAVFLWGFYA

CHO‐hSGLT1/2 cells = assay: Cytotoxicity assay (ToxiLight, adenylate kinase leakage into CHO‐SGLT1/2 inhibition assay media); set-up: CYTOTOXICITY / CY[…], mean / CYTOTOXICITY (% of vehicle control) Mean / CYTOTOXICITY, mean / CY[…] (% of vehicle control) Mean: dose or concentration left out as unconfirmed; details: mean; for CY[…] 50 mM: at 50 mM (so in the source);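 for all read-outs here: bioluminescent read-out of adenylate kinase released from lysed cells into the medium, given relative to DMSO vehicle control defined as 0%, higher meaning more cytolysis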
Description: The cytotoxicity of representative SGLT1/2 inhibitors and compounds from the different chemical clusters was tested. Cytotoxicity was determined using the ToxiLight bioassay kit according to the supplier's instructions. This nondestructive assay measures leakage of the enzyme adenylate kinase (AK) from damaged cells into the CHO‐SGLT1/2 inhibition assay media, ie the degree of cytolysis. […] Next, bioluminescence was measured using a FlexStation 3 Multi‐Mode Microplate Reader (Molecular Devices) by 1 second integrated reading. Cytotoxicity was expressed as the percentage of bioluminescence of the DMSO vehicle control which was set at 0%. If applicable, statistical outliers were determined using Grubbs’ test (alpha = 0.05) and excluded for calculation of the mean ± SD.

[1] = ratio of normalized SGLT2 to SGLT1 activity at 5 uM

SMILES | remaining activity at 5 µM (SGLT1) | remaining activity at 50 µM (SGLT1) | remaining activity at 5 µM (hSGLT2) | remaining activity at 50 µM (hSGLT2) | activity (SGLT1) | activity (hSGLT2) | SGLT2/SGLT1 ACTIVITY RATIO 5 uM Mean (hSGLT2; [1]) | CYTOTOXICITY (% of vehicle control) Mean (CHO‐hSGLT1/2 cells) | CYTOTOXICITY (CHO‐hSGLT1/2 cells) | also measured
C1CCC(C(CC2CCCCN2)C2CCCCC2)CC1 (stereo not drawn) [Perhexiline maleate salt] | 98% | 49% | 88% | 38% | – | – | – | – | – | CY[…] 50 mM (CHO‐hSGLT1/2 cells): 0.684
COc1ccc(-c2coc3cc(O[C@@H]4O[C@H](CO)[C@@H](O)[C@H](O)[C@H]4O)c(OC)cc3c2=O)cc1 [wistin] | – | – | – | – | 99% | 98% | 1.0 | -51 % of vehicle control | – | Cytotoxicity (percentage of bioluminescence of DMSO vehicle control, set at 0%) (CHO‐hSGLT1/2 cells; CHO‐SGLT1 and CHO‐SGLT2 data combined, ≥20% considered toxic): −51%
COC(=O)[C@@]1(C)CC[C@]2(C(=O)O[C@@H]3O[C@H](CO)[C@@H](O)[C@H](O)[C@H]3O)CC[C@]3(C)C(=CC[C@@H]4[C@@]5(C)C[C@H](O)[C@H](O[C@@H]6OC[C@@H](O[C@@H]7O[C@H](CO)[C@@H](O)[C@H](O)[C@H]7O)[C@H](O)[C@H]6O)[C@@](C)(CO)[C@@H]5CC[C@]43C)[C@@H]2C1 [Esculentoside H] | 104% | 102% | 120% | 112% | – | – | – | – | -13 | –
COc1cc(/C=C/c2cc(O)cc(O)c2)c2c(c1)O[C@H](c1ccc(OC)c(O)c1)[C@H]2c1cc(O)cc(O)c1 [Shegansu B] | 100% | 100% | 101% | 103% | – | – | – | – | -25 | –
CN1[C@@H](CC(=O)c2ccccc2)CCC[C@H]1C[C@H](O)c1ccccc1 [(-)-Lobeline HCl] | 98% | 57% | 97% | 63% | – | – | – | – | – | CY[…] 50 mM (CHO‐hSGLT1/2 cells): -18
Cc1cccc(C)c1NC(=O)C1CCCCN1C (racemic) [(±)-Mepivacaine HCl] | 98% | 89% | 89% | 82% | – | – | – | – | 3 | –
C[C@@H]1O[C@@H](O[C@H]2[C@H](O[C@H]3CC[C@]4(C)[C@H]5CC=C6[C@@H]7CC(C)(C)CC[C@]7(C(=O)O)CC[C@@]6(CO)[C@]5(C)CC[C@H]4C3(C)C)OC[C@H](O[C@@H]3O[C@H](CO)[C@@H](O)[C@H](O)[C@H]3O)[C@@H]2O)[C@H](O)[C@H](O)[C@H]1O [Raddeanoside 20] | 103% | 99% | 116% | 116% | – | – | – | – | -24 | –
CC=C(C)C(=O)O[C@H]1[C@@H](OC(=O)CC(C)C)c2c(ccc3ccc(=O)oc23)OC1(C)C [praeruptorin E] | – | – | – | – | 73% | 123% | 1.7 | -1.25 % of vehicle control | – | SGLT2/SGLT1‐50μmol/L (ratio of SGLT2 to SGLT1 activities with 50 μmol/L inhibitor) (SGLT1): 3.1
CC=C(C)C(=O)O[C@H]1c2c(ccc3ccc(=O)oc23)OC(C)(C)[C@H]1OC(=O)C(C)=CC [Praeruptorin B - INDOFINE] | – | – | – | – | 91% | 92% | 1.0 | -15 % of vehicle control | – | –
Oc1ccc(/C=C/c2cc(O)cc3c2[C@@H](c2cc(O)cc(O)c2)[C@H](c2ccc(O)cc2)O3)cc1 [(-)-e-Viniferin] | 106% | 117% | 107% | 65% | – | – | – | – | -9 | –
C[C@@H]1O[C@@H](O[C@H]2[C@H](O[C@H]3CC[C@@]4(C)[C@@H](CC[C@]5(C)[C@@H]4CC=C4[C@@H]6CC(C)(C)CC[C@]6(C(=O)O)CC[C@]45C)[C@]3(C)CO)OC[C@H](O)[C@@H]2O)[C@H](O)[C@H](O[C@@H]2O[C@H](CO)[C@@H](O)[C@H](O)[C@H]2O)[C@H]1O [Kalopanaxsaponin H] | 104% | 99% | 117% | 110% | – | – | – | – | -33 | –
COc1cc(O[C@@H]2O[C@H](CO)[C@@H](O)[C@H](O)[C@H]2O)c2c(c1)O[C@H](c1ccc(O)cc1)CC2=O [Sakuranin] | – | – | – | – | 98% | 100% | 1.0 | -1.5 % of vehicle control | – | –
Clc1ccc(C(OCCN2CCCCC2)c2ccccc2)cc1 (stereo not drawn) [Cloperastine HCl] | – | – | – | – | 61% | 65% | 1.1 | -5 % of vehicle control | – | –
COc1ccc(-c2coc3cc(O[C@@H]4O[C@H](CO)[C@@H](O)[C@H](O)[C@H]4O)c(OC)cc3c2=O)cc1OC [Cladrastin-7-O-b-D-glucopyranoside] | – | – | – | – | 104% | 103% | 1.0 | -23 % of vehicle control | – | –
Oc1cc(O)cc(/C=C/c2ccccc2)c1 [Pinosylvin] | 98% | 155% | 97% | 117% | – | – | – | – | -71 | –
CC=C(C)C(=O)O[C@H]1c2c(ccc3ccc(=O)oc23)OC(C)(C)[C@H]1OC(C)=O [(+)-Pteryxin] | – | – | – | – | 75% | 81% | 1.1 | 2 % of vehicle control | – | –
CCN(CC)CCOC(=O)C1(c2ccccc2)CCCC1 [Caramiphen HCl] | – | – | – | – | 101% | 88% | 0.9 | -5.41 % of vehicle control | – | –
COc1cc(O)cc(/C=C/c2cccc(O)c2)c1 [Thunalbene] | 106% | 145% | 108% | 148% | – | – | – | – | -81 | –
C/C=C(\C)C(=O)O[C@H]1[C@@H](OC(C)=O)c2c(ccc3ccc(=O)oc23)OC1(C)C [(+)-Praeruptorin A] | – | – | – | – | 94% | 95% | 1.0 | -5.48 % of vehicle control | – | –
CCCCN1CCCCC1C(=O)Nc1c(C)cccc1C (stereo not drawn) [Bupivacaine HCl monohydrate] | 68% | 36% | 72% | 50% | – | – | – | – | – | CY[…] 50 mM (CHO‐hSGLT1/2 cells): -2.27
O=c1c2ccccc2[nH]c(=S)n1CCN1CCC(=C(c2ccc(F)cc2)c2ccc(F)cc2)CC1 [Diacylglycerol Kinase Inhibitor II] | 105% | 89% | 106% | 85% | – | – | – | – | -13 | –
C=C(C)C(CC=C(C)C)Cc1c(O)cc2c(c1O)C(=O)CC(c1ccc(O)cc1O)O2 (stereo not drawn) [Kushenol F] | – | – | – | – | 109% | – | – | 15 % of vehicle control | – | SGLT2/SGLT1 ACTIVITY RATIO 5 uM Mean (hSGLT2): 1.1; SGLT2/SGLT1 ACTIVITY RATIO 50 mM Mean (hSGLT2): 1.1
